Each structure is given as a SMILES string.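 Assay format: 96-well plates, 48-hour exposure. Here, GI50 denotes the concentration required for 50% inhibition of growth. At the TGI there is no net growth.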

One test concerns COLO 205 colon. Description: NCI-60 cell line screen, 48 h.
For the compound `COc1ccc(/C(=C2/O[C@@H]([C@H]3COC(C)(C)O3)[C@H]3OC(C)(C)O[C@@H]23)c2cc(OC)c(OC)c(OC)c2)cc1O`, the GI50 is 27.3 µM and the TGI was determined as 63.7 µM.
Turning to `Cn1c(=O)c2c(nc(-n3nc(-c4ccc(Cl)cc4)cc3N)n2C)n(C)c1=O`, the TGI is over 100 µM.
On the same count and under the same terms, the value for `N=c1c2c(C(N)=O)cn(C3OC(CO)C(O)C3O)c2ncn1O` (stereo not given) was 1.23 µM.
As to `CCS(=O)(=O)Nc1ccc(Nc2c3ccccc3nc3ccccc23)c(OC)c1`, the TGI was 7.28 µM.
For `Cc1nc(N)nc(N)c1-c1ccc(Cl)c(Cl)c1`, the TGI is over 67.5 µM.
In turn, `Cc1cccc2nc3c(C(=O)NCCN(C)C)cccc3cc12` had a TGI of 2.62 µM.
On the same count and under the same terms, for `C[C@]12CC[C@@H]3c4ccc(OP(=O)(O)O)cc4CC[C@H]3[C@@H]1CCC2=O` the value was over 100 µM.
Still for that read-out and setting: the value for `CCSCCC(N)C(=O)O` (stereo not given) was over 100 µM.
On the same count and under the same terms, for `COc1ccc2nc(N/N=C/C(C)=N/Nc3cc(C)c4cc(OC)ccc4n3)cc(C)c2c1` the value was 57.9 µM.
As for `CN(C)CC(=O)Nc1ccc(Cn2nnc3c2C(=O)c2nnn(Cc4ccc(NC(=O)CN(C)C)cc4)c2C3=O)cc1`, the GI50 was 0.087 µM and the TGI was 0.253 µM.

In a further test the test system is SF-295 CNS. Description: NCI-60 cell line screen, 48 h.
As for `CCN(CC)CC(C)Nc1ccc([N+](=O)[O-])c2sc3ccccc3c(=O)c12` (stereo not given), the GI50 was 1400 nM and the TGI was found to be 9.95 µM.
In the same order, the values of `N=C(N)c1ccc(-c2ccc(-c3cc(Cl)cc(Cl)c3)o2)nc1` are 1920 nM and 3.63 µM.
In turn, `CCOC(=O)CSc1nc(N)c2c(-c3ccc(OC)c(OC)c3)c3c(nc2n1)CCCC3` had a TGI of over 100 µM.
On the same count and under the same terms, for `CNC(=O)OC(C)CN1c2ccccc2Sc2ccc(Cl)cc21` (stereo not given) the value was over 10 µM.
For the compound `O=C(CCCCCCC(=O)Nc1ccc(N(CCCl)CCCl)cc1)NO`, the GI50 was 1910 nM and the TGI was determined as 10.2 µM.
Consider `CN1CC[C@@]2(c3cccc(O)c3)CC(=O)/C(=C/c3ccccc3)[C@H]1C2`, for which the TGI turned out to be 23.8 µM.
Same read-out and setting: for `O=C(N/N=C(/c1ccccc1)C(F)(F)F)c1ccncc1` the value was over 100 µM.
Consider `ONc1ncnc2nc[nH]c12`, for which the TGI is over 100 µM.
The compound `O=S(=O)(O)c1ccc2cccc(N=Nc3c(O)ccc4ccccc34)c2c1` yielded a TGI of over 100 µM.
Turning to `COc1ccc2nc(-c3ccc(-c4noc(-c5cc(OC)c(OC)c(OC)c5)n4)cc3)[nH]c2c1`, the GI50 is 15000 nM and the TGI came to 38.3 µM.
Consider `COc1ccc(/C(=C2/O[C@@H]([C@H]3COC(C)(C)O3)[C@H]3OC(C)(C)O[C@@H]23)c2cc(OC)c(OC)c(OC)c2)cc1O`, for which the GI50 is 18700 nM and the TGI is 43.9 µM.
Consider `Cn1c(=O)c2c(nc(-n3nc(-c4ccc(Cl)cc4)cc3N)n2C)n(C)c1=O`, for which the TGI is over 100 µM.
Same read-out and setting: for `N=c1c2c(C(N)=O)cn(C3OC(CO)C(O)C3O)c2ncn1O` (stereo not given) the value was 1.42 µM; for `CCS(=O)(=O)Nc1ccc(Nc2c3ccccc3nc3ccccc23)c(OC)c1`, 3.34 µM.
The same measure, in the same setting: for `Cc1nc(N)nc(N)c1-c1ccc(Cl)c(Cl)c1` the value was over 100 µM.
`Cc1cccc2nc3c(C(=O)NCCN(C)C)cccc3cc12` gave a TGI of 4.65 µM.
Consider `C[C@]12CC[C@@H]3c4ccc(OP(=O)(O)O)cc4CC[C@H]3[C@@H]1CCC2=O`, for which the TGI is over 100 µM.
For the compound `CCSCCC(N)C(=O)O` (stereo not given), the TGI was over 100 µM.
Turning to `COc1ccc2nc(N/N=C/C(C)=N/Nc3cc(C)c4cc(OC)ccc4n3)cc(C)c2c1`, the TGI amounted to 42.8 µM.

The next test deals with SN12C renal. Description: NCI-60 cell line screen, 48 h.
As for `CCN(CC)CC(C)Nc1ccc([N+](=O)[O-])c2sc3ccccc3c(=O)c12` (stereo not given), the GI50 was 1930 nM and the TGI was 23.5 µM.
As to `N=C(N)c1ccc(-c2ccc(-c3cc(Cl)cc(Cl)c3)o2)nc1`, the GI50 was 1620 nM and the TGI stood at 3.16 µM.
For the compound `CCOC(=O)CSc1nc(N)c2c(-c3ccc(OC)c(OC)c3)c3c(nc2n1)CCCC3`, the TGI is over 100 µM.
The same measure, in the same setting: the value for `CNC(=O)OC(C)CN1c2ccccc2Sc2ccc(Cl)cc21` (stereo not given) was over 10 µM.
Consider `O=C(CCCCCCC(=O)Nc1ccc(N(CCCl)CCCl)cc1)NO`, for which the GI50 is 800 nM and the TGI worked out at 18.6 µM.
`CN1CC[C@@]2(c3cccc(O)c3)CC(=O)/C(=C/c3ccccc3)[C@H]1C2` came in with a TGI of 19.4 µM.
Same read-out and setting: the value for `O=C(N/N=C(/c1ccccc1)C(F)(F)F)c1ccncc1` was over 100 µM; that for `CCCc1[nH]c(SCCCCCCCCSc2nc(-c3ccc(F)cc3)c(CCC)[nH]2)nc1-c1ccc(F)cc1` was over 100 µM.
Still for that read-out and setting: for `O=S(=O)(O)c1ccc2cccc(N=Nc3c(O)ccc4ccccc34)c2c1` the value was over 100 µM.
For `COc1ccc2nc(-c3ccc(-c4noc(-c5cc(OC)c(OC)c(OC)c5)n4)cc3)[nH]c2c1`, the GI50 was 13200 nM and the TGI stood at 31.3 µM.
On the same counts, the results for `COc1ccc(/C(=C2/O[C@@H]([C@H]3COC(C)(C)O3)[C@H]3OC(C)(C)O[C@@H]23)c2cc(OC)c(OC)c(OC)c2)cc1O` are 8900 nM and over 100 µM.
`Cn1c(=O)c2c(nc(-n3nc(-c4ccc(Cl)cc4)cc3N)n2C)n(C)c1=O` came in with a TGI of over 100 µM.
Still for that read-out and setting: the value for `N=c1c2c(C(N)=O)cn(C3OC(CO)C(O)C3O)c2ncn1O` (stereo not given) was 0.444 µM.
On the same count and under the same terms, the value for `CCS(=O)(=O)Nc1ccc(Nc2c3ccccc3nc3ccccc23)c(OC)c1` was 3.86 µM; that for `Cc1nc(N)nc(N)c1-c1ccc(Cl)c(Cl)c1` was over 100 µM.
In the case of `Cc1cccc2nc3c(C(=O)NCCN(C)C)cccc3cc12`, the TGI turned out to be 5.98 µM.
Regarding `C[C@]12CC[C@@H]3c4ccc(OP(=O)(O)O)cc4CC[C@H]3[C@@H]1CCC2=O`, the TGI is over 100 µM.
The same measure, in the same setting: for `CCSCCC(N)C(=O)O` (stereo not given) the value was over 100 µM; for `COc1ccc2nc(N/N=C/C(C)=N/Nc3cc(C)c4cc(OC)ccc4n3)cc(C)c2c1`, 51.4 µM.

The values are drawn from PubChem BioAssay (NCI).
